Measured values from patent US5633219A, “5H-pyrrolo(3',4':5,6)(1,4)dithiin o(2,3-C)(1,2,5)thiadiazole-5,7(6H)-dione, compositions containing them and their use as antimicrobial and marine antifouling agents” (The Dow Chemical Company, priority 1996, dated 1997).
≈ marks a conversion by molar mass, not a printed value. Read-outs that look alike come from different tables or passages of the source.

Experiments:
[1] = tested on: Pseudomonas aeruginosa (Pa); assay: Minimum inhibitory concentration, nutrient agar, Pseudomonas aeruginosa; type: cell-based, Pseudomonas aeruginosa ATCC 10145; conditions: 30° C, 48 hours
Candida albicans (Ca) = assay: Minimum inhibitory concentration, malt yeast agar, Candida albicans; type: cell-based, Candida albicans ATCC 10231; conditions: read-out: Minimum Inhibitory Concentration, Ca
Description: (§1) Malt yeast agar is prepared by adding 3 g yeast extract and 45 g malt agar per liter of deionized water. The specific agar is dispensed in 30 mL aliquots into 25×200 mm test tubes, capped and autoclaved for 15 minutes at 115° C.
(§2) The inoculation with the yeast and fungi is accomplished as follows. Cultures of yeast and fungi are incubated for seven days on malt yeast agar at 30° C. These cultures are used to prepare suspensions by the following procedure. A suspension of each organism is prepared by adding 10 mL of sterile saline and 10 microliters of octylphenoxy polyethoxy ethanol to the agar slant of yeast or fungi. The sterile saline/octylphenoxy polyethoxy ethanol solution is then agitated with a sterile swab to suspend the microorganism grown on the slant. Each resulting suspension is diluted into sterile saline (1 part suspension to 9 parts sterile saline). Aliquots of these dilutions are placed in individual wells of Steer's Replicator and petri plates inoculated as previously described. The petri plates are incubated at 30° C. and read after 48 hours for yeast and 72 hours for fungi.

[2] = tested on: Enterobacter aerogenes (Ea); assay: Minimum inhibitory concentration, nutrient agar, Enterobacter aerogenes; conditions: Klebsiella aerogenes, 48 h
[3] = tested on: Pseudomonas aeruginosa (PRD-10); assay: Minimum inhibitory concentration, nutrient agar, Pseudomonas aeruginosa PRD-10; conditions: 48 h
Bacillus subtilis (Bs) = assay: Minimum inhibitory concentration, nutrient agar, Bacillus subtilis; conditions: 48 h
[4] = tested on: Saccharomyces cerevisiae (Sc); assay: Minimum inhibitory concentration, malt yeast agar, Saccharomyces cerevisiae; type: cell-based, Saccharomyces cerevisiae ATCC 4105; conditions: read-out: Minimum Inhibitory Concentration, Sc
Description: as §1, §2

Trichoderma viride (Tv) = assay: Minimum inhibitory concentration, malt yeast agar, Trichoderma viride; type: cell-based, Trichoderma viride ATCC 8678; conditions: read-out: Minimum Inhibitory Concentration, Tv
Description: as §1, §2

[5] = tested on: Aureobasidium pullulan (Ap); assay: Minimum inhibitory concentration, malt yeast agar, Aureobasidium pullulan; type: cell-based, Aureobasidium pullulan ATCC 16622; conditions: 30° C, 48 hours for yeast and 72 hours for fungi
Description: as §1, §2

Aspergillus niger (An) = assay: Minimum inhibitory concentration, malt yeast agar, Aspergillus niger; type: cell-based, Aspergillus niger ATCC 16404; conditions: 30° C, 72 hours (fungi)
Description: as §1, §2

Proteus vulgaris (Pv) = assay: Minimum inhibitory concentration, nutrient agar, Proteus vulgaris; conditions: 48 h
[6] = tested on: Penicillium chrysogenum (PC); assay: Minimum inhibitory concentration, malt yeast agar, Penicillium chrysogenum; type: cell-based, Penicillium chrysogenum ATCC 9480; conditions: read-out: Minimum Inhibitory Concentration, Pc
Description: as §1, §2

marine organisms = assay: Marine antifouling rating of coated test panels exposed under a marine surface; conditions: scale 10 (completely free of growth) to 0 (completely covered), 1.0 g compound in 9.0 g latex binder
Description: Test panels are prepared from clear, rigid polyvinyl chloride film that is 0.381×10^-3 m thick and has one textured surface. The test panels are 0.1524 m by 0.1524 m squares that have 0.00635 m holes punched at corners on 0.127 m centers. A 0.102 square template, with a 0.067 m diameter hole at the center, is attached to the center of the textured surface of the test panels.
A candidate marine antifoulant compound (1.0 g) is stirred into a resinous latex binder (9.0 g). A portion of the compound/binder mixture (1.5 g) is added to the center of the test panel and uniformly spread over the circular area inside the template.
Water is added dropwise as needed to properly spread the compound/binder mixture. The template prevents the compound/binder mixture from spreading beyond the uncovered area. The test panel is allowed to sit for between 10 to 30 minutes until the edge of the spread compound/binder mixture has dried. The template is then removed. The test panel is then allowed to dry for 8 to 12 hours at room temperature.
Two test panels are prepared for each candidate marine antifoulant compound. Two control test panels are also prepared by only treating with the resinous latex binder. One test panel of each candidate marine […] compound is attached over a white background to the topside of an exposure support apparatus. The second test panel is attached over a black background to the underside of the exposure support apparatus. The exposure support apparatus is placed horizontally 0.0254 m under a marine surface with the white background topside facing up. […]
After being removed from the exposure support apparatus, each test panel is inspected and rated for marine organism growth on both the treated and untreated areas of the test panel. The marine organisms present on the treated and untreated areas are noted. The presence of algae spores and bacterial slime are noted but not included in rating each test panel. The test panels are rated on a scale from 10 (representing completely free of marine organism growth) to 0 (representing completely covered with marine organism growth).

[7] = tested on: Salmonella choleraesuis (Sc); assay: Minimum inhibitory concentration, nutrient agar, Salmonella choleraesuis; type: cell-based, Salmonella choleraesuis ATCC 10708; conditions: Salmonella enterica, 30° C, 48 hours
Fusarium oxysporum (Of) = assay: Minimum inhibitory concentration, malt yeast agar, Fusarium oxysporum; type: cell-based, Fusarium oxysporum ATCC 48112; conditions: 30° C, 72 hours (fungi), read-out: Minimum Inhibitory Concentration, Fo
Description: as §1, §2

Escherichia coli (Ec) = assay: Minimum inhibitory concentration, nutrient agar, Escherichia coli; conditions: 48 h
[8] = tested on: Staphylococcus aureus (Sa); assay: Minimum inhibitory concentration, nutrient agar, Staphylococcus aureus; conditions: 48 h
[9] = tested on: Klebsiella pneumoniae (Kp); assay: Minimum inhibitory concentration, nutrient agar, Klebsiella pneumoniae; conditions: 48 h
[10] = malt yeast agar, 30° C, 48 hours (yeast)
[11] = pH 6.8, read-out: Minimum inhibitory Concentration, Ea
[12] = pH 8.2, read-out: Minimum inhibitory Concentration, Ea
[13] = pH 6.8, read-out: Minimum inhibitory Concentration, PRD
[14] = pH 8.2, read-out: Minimum inhibitory Concentration, PRD
[15] = pH 6.8, read-out: Minimum inhibitory Concentration, Bs
[16] = pH 8.2, read-out: Minimum inhibitory Concentration, Bs
[17] = malt yeast agar, 30° C, 72 hours (fungi)
[18] = pH 6.8, read-out: Minimum inhibitory Concentration, Pv
[19] = pH 8.2, read-out: Minimum inhibitory Concentration, Pv
[20] = pH 6.8, read-out: Minimum inhibitory Concentration, Ec
[21] = pH 8.2, read-out: Minimum inhibitory Concentration, Ec
[22] = pH 6.8, read-out: Minimum inhibitory Concentration, Sa
[23] = pH 8.2, read-out: Minimum inhibitory Concentration, Sa
[24] = pH 6.8, read-out: Minimum inhibitory Concentration, Kp
[25] = pH 8.2, read-out: Minimum inhibitory Concentration, Kp

Row | SMILES | MIC ([1]; pH 8.2, nutrient agar) [µg/mL] | MIC (Candida albicans (Ca); [10]) [µg/mL] | MIC [2, 11] [µg/mL] | MIC [2, 12] [µg/mL] | MIC [3, 13] [µg/mL] | MIC [3, 14] [µg/mL] | MIC (Bacillus subtilis (Bs); [15]) [µg/mL] | MIC (Bacillus subtilis (Bs); [16]) [µg/mL] | MIC [4, 10] [µg/mL] | MIC [5] [µg/mL] | MIC (Proteus vulgaris (Pv); [18]) [µg/mL] | MIC (Proteus vulgaris (Pv); [19]) [µg/mL] | MIC ([7]; pH 6.8, nutrient agar) [µg/mL] | MIC ([7]; pH 8.2, nutrient agar) [µg/mL] | MIC (Escherichia coli (Ec); [20]) [µg/mL] | MIC (Escherichia coli (Ec); [21]) [µg/mL] | MIC [8, 22] [µg/mL] | MIC [8, 23] [µg/mL] | MIC [9, 24] [µg/mL] | MIC [9, 25] [µg/mL] | further results
1 | O=c1[nH]c(=O)c2sc3nsnc3sc1=2 [Example I, 5H-Pyrrolo(3',4':5,6)(1,4)dithiino-(2,3-C) (1,2,5)thiadiazole-5,7 (6H) -dione] | > 500 | 5 (≈ 20.6 µM) | 250 (≈ 1030 µM) | > 500 | 500 (≈ 2060 µM) | > 500 | < 10 | > 500 | < 1 | < 1 | 50 (≈ 206 µM) | > 500 | 100 (≈ 411 µM) | > 500 | 100 (≈ 411 µM) | > 500 | 100 (≈ 411 µM) | > 500 | 100 (≈ 411 µM) | > 500 | MIC (Trichoderma viride (Tv); [17]): 5 µg/mL (≈ 20.6 µM); MIC (Aspergillus niger (An)): < 1 µg/mL; MIC [6, 17]: < 1 µg/mL; Marine Antifouling Rating, Bottom Panel (marine organisms; 6 weeks): 10; Marine Antifouling Rating, Top Panel (marine organisms; 6 weeks): 10; Marine Antifouling Rating, Bottom Panel (marine organisms; 10 weeks): 9; Marine Antifouling Rating, Top Panel (marine organisms; 10 weeks): 7; Marine Antifouling Rating, Bottom Panel (marine organisms; 16 weeks): 9; Marine Antifouling Rating, Top Panel (marine organisms; 16 weeks): 8; MIC (Fusarium oxysporum (Of)): < 1 µg/mL
2 | Cn1c(=O)c2sc3nsnc3sc=2c1=O [II, 6-Methyl-5H-Pyrrolo (3',4':5,6)(1,4)dithiino-(2,3-C)(1,2,5)thiadiazole-5,7(6H) -dione] | > 500 | < 1 | > 500 | > 500 | > 500 | > 500 | < 10 | 250 (≈ 972 µM) | < 1 | < 1 | 25 (≈ 97.2 µM) | > 500 | 100 (≈ 389 µM) | > 500 | 50 (≈ 194 µM) | > 500 | 50 (≈ 194 µM) | 250 (≈ 972 µM) | 250 (≈ 972 µM) | > 500 | MIC ([1]; pH 6.8, nutrient agar): > 500 µg/mL; MIC (Trichoderma viride (Tv); [17]): < 1 µg/mL; MIC (Aspergillus niger (An)): < 1 µg/mL; MIC [6, 17]: < 1 µg/mL; MIC (Fusarium oxysporum (Of)): < 1 µg/mL
3 | CCn1c(=O)c2sc3nsnc3sc=2c1=O [III, 6-Ethyl-5H-Pyrrolo(3',4':5,6)(1,4)dithiino-(2,3-C)(1,2,5)thiadiazole-5,7(6H) -dione] | > 500 | < 10 | > 500 | > 500 | > 500 | > 500 | 25 (≈ 92.1 µM) | 100 (≈ 369 µM) | < 10 | < 10 | 50 (≈ 184 µM) | > 500 | 250 (≈ 921 µM) | > 500 | 50 (≈ 184 µM) | > 500 | 50 (≈ 184 µM) | 250 (≈ 921 µM) | 500 (≈ 1840 µM) | > 500 | MIC ([1]; pH 6.8, nutrient agar): > 500 µg/mL; MIC (Trichoderma viride (Tv); [17]): 500 µg/mL (≈ 1840 µM); MIC [6, 17]: 25 µg/mL (≈ 92.1 µM); MIC (Fusarium oxysporum (Of)): 250 µg/mL (≈ 921 µM)
4 | CCCCCCn1c(=O)c2sc3nsnc3sc=2c1=O [V, 6-n-Hexyl-5H-Pyrrolo (3',4':5,6)(1,4)dithiino-(2,3-C)(1,2,5)thiadiazole-5,7(6H) -dione] | > 500 |  | > 500 | > 500 | > 500 | > 500 | < 10 | 25 (≈ 76.3 µM) |  | 25 (≈ 76.3 µM) | > 500 | > 500 | > 500 | > 500 | > 500 | > 500 | < 10 | < 10 | > 500 | > 500 | MIC ([1]; pH 6.8, nutrient agar): > 500 µg/mL; MIC (Candida albicans (Ca); 48 h): 25 µg/mL (≈ 76.3 µM); MIC ([4]; 48 h): 25 µg/mL (≈ 76.3 µM); MIC (Trichoderma viride (Tv); 72 h): 50 µg/mL (≈ 153 µM); MIC [6, 17]: 25 µg/mL (≈ 76.3 µM)
5 | O=c1c2sc3nsnc3sc=2c(=O)n1-c1ccccc1 [VI, 6-Phenyl-5H-Pyrrolo(3',4':5,6)(1,4)dithiino-(2,3-C)(1,2,5)thiadiazole-5,7 (6H) -dione] | > 500 | 250 (≈ 783 µM) | > 500 | > 500 | > 500 | > 500 | < 10 | 100 (≈ 313 µM) | 100 (≈ 313 µM) | < 10 | > 500 | > 500 | > 500 | > 500 | > 500 | > 500 | 25 (≈ 78.3 µM) | 50 (≈ 157 µM) | > 500 | > 500 | MIC ([1]; pH 6.8, nutrient agar): > 500 µg/mL; MIC (Trichoderma viride (Tv); [17]): 500 µg/mL (≈ 1570 µM); MIC (Aspergillus niger (An)): < 10 µg/mL; MIC ([6]; 72 h): < 10 µg/mL; MIC (Fusarium oxysporum (Of)): 250 µg/mL (≈ 783 µM)
6 | O=c1c2sc3nsnc3sc=2c(=O)n1CCc1ccccc1 [VII, 6-(2-Phenethyl)-5H-Pyrrolo(3',4':5,6)(1,4)dithiino-(2,3-C)(1,2,5)thiadiazole-5,7(6H)-dione] | > 500 | > 500 | > 500 | > 500 | > 500 | > 500 | > 500 | > 500 | 250 (≈ 720 µM) | 100 (≈ 288 µM) | > 500 | > 500 | > 500 | > 500 | > 500 | > 500 | > 500 | > 500 | > 500 | > 500 | MIC ([1]; pH 6.8, nutrient agar): > 500 µg/mL; MIC (Trichoderma viride (Tv); [17]): > 500 µg/mL; MIC (Aspergillus niger (An)): 100 µg/mL (≈ 288 µM); MIC [6, 17]: > 500 µg/mL; MIC (Fusarium oxysporum (Of)): > 500 µg/mL
